Values quoted from earlier work in patent US20240050950A1, “GRADIENT-BASED MICROFLUIDIC CIRCUIT, DEVICE, AND METHOD FOR PERFORMING AN ASSAY” (priority 2020, published 2024).
Where a name gives a salt, the structure may show the parent alone. Square brackets hold non-standard residues; d marks the D form. Peptide text beside a SMILES is read from it. * marks the point of attachment. dPhe(4-NHCONH2) = NC(=O)Nc1ccc(C[C@@H](N)C(=O)O)cc1; Dihydroorotyl(S) = O=C1C[C@@H](C(=O)*)NC(=O)N1; dPhe(4-Cl) = N[C@H](Cc1ccc(Cl)cc1)C(=O)O; Phe(4-NH2) = Nc1ccc(C[C@H](N)C(=O)O)cc1; d2Nal = N[C@H](Cc1ccc2ccccc2c1)C(=O)O; Lys(iPr) = CC(C)NCCCC[C@H](N)C(=O)O; d3Pal = N[C@H](Cc1cccnc1)C(=O)O

Details: Table 1, antimicrobial agents/drugs; cited from earlier work

Question: Which Molar volume does the source give for COc1cc2c(oc(=O)c3cc(C)cc(OC)c32)c2c([C@@H]3O[C@H](C)[C@H](O)[C@@](C)(O)[C@H]3O)ccc(O)c12 [Chrysomycin B (MFCD07370132), Chrysomycin B] here?
Answer: 352.0 ± 3.0 cm^3

Question: For CC[C@H]1OC(=O)[C@H](C)[C@@H](O[C@H]2C[C@@](C)(OC)[C@@H](O)[C@H](C)O2)[C@H](C)[C@@H](O[C@@H]2O[C@H](C)C[C@H](N(C)C)[C@H]2O)[C@](C)(OC)C[C@@H](C)C(=O)[C@H](C)[C@@H](O)[C@]1(C)O [Clarithromycin], which Molar volume is on record?
Answer: 631.9 ± 5.0 cm^3

Question: With CC(C)/N=c1\cc2n(-c3ccc(Cl)cc3)c3ccccc3nc-2cc1Nc1ccc(Cl)cc1 [Clofazimine] as the compound, how does the Molar volume read?
Answer: 366.0 ± 7.0 cm^3

Question: With Clc1ccccc1C(c1ccccc1)(c1ccccc1)n1ccnc1 [Clotrimazole] as the compound, how does the Molar volume read?
Answer: 302.7 ± 7.0 cm^3

Question: Which Molar volume does the source give for C/C=C/[C@H]1O[C@@](O)([C@@H](C)[C@H](O)[C@H](C)[C@H]2OC(=O)/C(OC)=C/C(C)=C/[C@@H](C)[C@@H](O)[C@@H](CC)[C@@H](O)[C@H](C)C/C(C)=C/C=C/[C@@H]2OC)C[C@@H](O[C@H]2C[C@@H](O)[C@H](OC(N)=O)[C@@H](C)O2)[C@@H]1C [Concanamycin A (Folimycin), Concanamycin A] here?
Answer: 703.1 ± 7.0 cm^3

Question: With Nc1ncnc2c1ncn2[C@@H]1O[C@H](CO)C[C@H]1O [Cordycepin (3′-Deoxyadenosine), 3′-Deoxyadenosine] as the compound, how does the Molar volume read?
Answer: 130.8 ± 7.0 cm^3

Question: For CO[C@H]1[C@H](OC(=O)c2ccc(C)[nH]2)[C@H](O)[C@@H](Oc2ccc3c(O)c(NC(=O)c4c[nH]c(C(=O)Nc5c(O)c6ccc(O[C@H]7OC(C)(C)[C@@H](OC)[C@H](OC(=O)c8ccc(C)[nH]8)[C@@H]7O)c(C)c6oc5=O)c4C)c(=O)oc3c2C)OC1(C)C [Coumermycin Al, Coumermycin A1], which Molar volume is on record?
Answer: 718.6 ± 5.0 cm^3

Question: Which Molar volume does the source give for C=C1[C@@H](C)[C@H]2[C@H](Cc3ccccc3)NC(=O)[C@]23OC(=O)/C=C/[C@H](O)CCC[C@@H](C)C/C=C/[C@H]3[C@@H]1O [Cytochalasin B (Phomin), Cytochalasin B] here?
Answer: 396.8 ± 5.0 cm^3

Question: For C=C1[C@@H](C)[C@H]2[C@H](Cc3ccccc3)NC(=O)[C@]23[C@H](OC(C)=O)/C=C/[C@@](C)(O)C(=O)[C@@H](C)C/C=C/[C@H]3[C@@H]1O [Cytochalasin D (Zygosporin A, 1632828), Cytochalasin D], which Molar volume is on record?
Answer: 410.0 ± 5.0 cm^3

Question: For N[C@@H]1CONC1=O [D-Cycloserine], which Molar volume is on record?
Answer: 79.8 ± 3.0 cm^3

Question: Which Molar volume does the source give for CC1(C)S[C@@H]2[C@H](NC(=O)[C@H](NC(=O)N3CCNC3=O)c3ccccc3)C(=O)N2[C@H]1C(=O)O [D-α-([Imidazolidin-2-on-1-yl]carbonylamino)benzylpenicillin] here?
Answer: 296.6 ± 5.0 cm^3

Question: For CCCCCCCCCC(=O)N[C@@H](Cc1c[nH]c2ccccc12)C(=O)N[C@H](CC(N)=O)C(=O)N[C@@H](CC(=O)O)C(=O)N[C@@H]1C(=O)NCC(=O)N[C@@H](CCCN)C(=O)N[C@@H](CC(=O)O)C(=O)N[C@H](C)C(=O)N[C@@H](CC(=O)O)C(=O)NCC(=O)N[C@H](CO)C(=O)N[C@@H]([C@H](C)CC(=O)O)C(=O)N[C@@H](CC(=O)c2ccccc2N)C(=O)O[C@@H]1C [Daptomycin], which Molar volume is on record?
Answer: 1110.7 ± 5.0 cm^3

Question: Which Molar volume does the source give for COc1cccc2c1C(=O)c1c(O)c3c(c(O)c1C2=O)C[C@@](O)(C(C)=O)C[C@@H]3O[C@H]1C[C@H](N)[C@H](O)[C@H](C)O1 [Daunorubicin (Daunomycin), Daunorubicin] here?
Answer: 339.4 ± 5.0 cm^3

Question: Which Molar volume does the source give for CN(C)[C@@H]1C(O)=C(C(N)=O)C(=O)[C@@]2(O)C(O)=C3C(=O)c4c(O)ccc(Cl)c4[C@@H](O)[C@H]3C[C@@H]12 [Demeclocycline] here?
Answer: 265.1 ± 5.0 cm^3

Question: Which Molar volume does the source give for Oc1ccc(Cl)cc1Cc1cc(Cl)ccc1O [Dichlorophene] here?
Answer: 189.5 ± 3.0 cm^3

Question: For Cc1onc(-c2c(Cl)cccc2Cl)c1C(=O)N[C@@H]1C(=O)N2[C@@H]1SC(C)(C)[C@@H]2C(=O)O [Dicloxacillin], which Molar volume is on record?
Answer: 290.0 ± 5.0 cm^3

Question: For CN1CCN(c2cc3c(cc2F)c(=O)c(C(=O)O)cn3-c2ccc(F)cc2)CC1 [Difloxacin], which Molar volume is on record?
Answer: 283.2 ± 3.0 cm^3

Question: For CN[C@@H]1[C@H](O[C@H]2[C@H](O[C@H]3[C@H](O)[C@@H](O)[C@H](NC(=N)N)[C@@H](O)[C@@H]3NC(=N)N)O[C@@H](C)[C@]2(O)CO)O[C@@H](CO)[C@H](O)[C@H]1O [Dihydrostreptomycin], which Molar volume is on record?
Answer: 293.4 ± 7.0 cm^3

Question: Which Molar volume does the source give for Cc1ncc([N+](=O)[O-])n1C [Dimetridazole] here?
Answer: 103.4 ± 7.0 cm^3

Question: With COc1cccc2c1C(=O)c1c(O)c3c(c(O)c1C2=O)C[C@@](O)(C(=O)CO)C[C@@H]3O[C@H]1C[C@H](N)[C@H](O)[C@H](C)O1 [Doxorubicin] as the compound, how does the Molar volume read?
Answer: 336.6 ± 5.0 cm^3

Question: With CCN1CCN(c2cc3c(cc2F)c(=O)c(C(=O)O)cn3C2CC2)CC1 [Enrofloxacin (Baytril), Enrofloxacin] as the compound, how does the Molar volume read?
Answer: 259.3 ± 3.0 cm^3

Same assay, conditions: Table 2, anticancer drugs; cited from earlier work

Question: With Nc1nc(Cl)nc2c1ncn2[C@H]1C[C@H](O)[C@@H](CO)O1 [Cladribine] as the compound, how does the Molar volume read?
Answer: 140.1 ± 7.0 cm^3

Question: For Nc1nc(Cl)nc2c1ncn2[C@@H]1O[C@H](CO)[C@@H](O)[C@@H]1F [Clofarabine], which Molar volume is on record?
Answer: 143.0 ± 7.0 cm^3

Question: With O=C(c1ccc(F)c(F)c1Nc1ccc(I)cc1F)N1CC(O)([C@@H]2CCCCN2)C1 [Cobimetinib] as the compound, how does the Molar volume read?
Answer: 311.3 ± 3.0 cm^3

Question: With C[C@@H](Oc1cc(-c2cnn(C3CCNCC3)c2)cnc1N)c1c(Cl)ccc(F)c1Cl [Crizotinib (Xalkori), Crizotinib] as the compound, how does the Molar volume read?
Answer: 305.2 ± 7.0 cm^3

Question: Which Molar volume does the source give for Nc1ccn([C@@H]2O[C@H](CO)[C@@H](O)[C@@H]2O)c(=O)n1 [Cytarabine (Tarabine PFS), Cytarabine] here?
Answer: 128.4 ± 7.0 cm^3

Question: For CC(C)(C)c1nc(-c2cccc(NS(=O)(=O)c3c(F)cccc3F)c2F)c(-c2ccnc(N)n2)s1 [Dabrafenib (Tafinlar), Dabrafenib], which Molar volume is on record?
Answer: 359.8 ± 3.0 cm^3

Question: For COc1cc2ncnc(Nc3ccc(F)c(Cl)c3)c2cc1NC(=O)/C=C/CN1CCCCC1 [Dacomitinib (Vizimpro), Dacomitinib], which Molar volume is on record?
Answer: 349.4 ± 3.0 cm^3

Question: Which Molar volume does the source give for CC(=O)N[C@H](Cc1ccc2ccccc2c1)C(=O)N[C@H](Cc1ccc(Cl)cc1)C(=O)N[C@H](Cc1cccnc1)C(=O)N[C@@H](CO)C(=O)N[C@@H](Cc1ccc(NC(=O)[C@@H]2CC(=O)NC(=O)N2)cc1)C(=O)N[C@H](Cc1ccc(NC(N)=O)cc1)C(=O)N[C@@H](CC(C)C)C(=O)N[C@@H](CCCCNC(C)C)C(=O)N1CCC[C@H]1C(=O)N[C@H](C)C(N)=O [Degarelix] (Ac-[d2Nal][dPhe(4-Cl)][d3Pal]S[Phe(4-NH2)](Dihydroorotyl(S))[dPhe(4-NHCONH2)]L[Lys(iPr)]P[dA]-NH2) here?
Answer: 1231.3 ± 3.0 cm^3

Question: Which Molar volume does the source give for C[C@@H](CN1CC(=O)NC(=O)C1)N1CC(=O)NC(=O)C1 [Dexrazoxane Hydrochloride] here?
Answer: 201.2 ± 3.0 cm^3

Question: For CC(=O)O[C@@]12CO[C@@H]1C[C@H](O)[C@@]1(C)C(=O)[C@H](O)C3=C(C)[C@@H](OC(=O)[C@H](O)[C@@H](NC(=O)OC(C)(C)C)c4ccccc4)C[C@@](O)([C@@H](OC(=O)c4ccccc4)[C@H]21)C3(C)C [Docetaxel (Taxotere), Docetaxel], which Molar volume is on record?
Answer: 585.7 ± 5.0 cm^3

Question: Which Molar volume does the source give for COc1cccc2c1C(=O)c1c(O)c3c(c(O)c1C2=O)C[C@@](O)(C(=O)CO)C[C@@H]3O[C@H]1C[C@H](N)[C@H](O)[C@H](C)O1 [Doxorubicin] here?
Answer: 336.6 ± 5.0 cm^3

Question: Which Molar volume does the source give for CC(C)(O)CNc1nc(Nc2ccnc(C(F)(F)F)c2)nc(-c2cccc(C(F)(F)F)n2)n1 [Enasidenib Mesylate] here?
Answer: 320.4 ± 3.0 cm^3

Question: Which Molar volume does the source give for CNC(=O)c1ccc(N2C(=S)N(c3ccc(C#N)c(C(F)(F)F)c3)C(=O)C2(C)C)cc1F [Enzalutamide (Xtandi), Enzalutamide] here?
Answer: 310.0 ± 5.0 cm^3
